Earlier results on seven molecules are cited in US6764831B2, “Methods and compositions for pain management” (priority 1998, dated 2004).

Structures are written as SMILES.

The conditions of data set [1]: injected into the brachial artery of humans.
For data set [2], the system named is cholinesterase (ChE). The settings on record: muscle relaxants used with anesthesia.
In data set [3] the test system is ACh level in the extracellular space. To be noted: injection into rats.
Data set [4] deals with extracellular ACh level.
Data set [5] has as its system cholinesterase.

`CC(=O)OCC[N+](C)(C)C` [ACh, acetylcholine]: the “pain produced on injection” value in data set [1] is on record as “extreme pain was produced”.
`COc1ccc(C[C@@H]2c3cc(OC)c(OC)cc3CC[N@+]2(C)CCC(=O)OCCCCCOC(=O)CC[N@@+]2(C)CCc3cc(OC)c(OC)cc3[C@H]2Cc2ccc(OC)c(OC)c2)cc1OC` [NIMBEX]: in data set [2], the “effect on cholinesterase (ChE)” value is listed as “no effect”.
With `CC(=O)O[C@H]1C[C@@H]2CC[C@@H]3[C@H](CC[C@@]4(C)[C@H]3C[C@H]([N+]3(C)CCCCC3)[C@@H]4OC(C)=O)[C@@]2(C)C[C@@H]1N1CCCCC1.[Br-]` [NOCURON], the “effect on cholinesterase (ChE)” value in data set [2] is “no effect”.
For `C[N+](C)(C)CCOC(=O)CCC(=O)OCC[N+](C)(C)C` [Succinylcholine], in data set [2], the “effect on cholinesterase (ChE)” value is “no effect”.
In the case of `CCCCCCCNC(=O)Oc1ccc2c(c1)[C@]1(C)CCN(C)[C@@H]1N2C` [heptylphysostigmine], the “ACh level in the extracellular space” value in data set [3] was “elevation”.
Regarding `CN(C)C(=O)Oc1cccc([N+](C)(C)C)c1` [neostigmine], in data set [4], the “extracellular ACh level” value is “above detection limit”. Also, the cholinesterase inhibition result in data set [5] was “inhibit”.
Consider `C=CC[N+]1([C@H]2C[C@H]3[C@@H]4CC[C@H]5C[C@H](O)[C@@H](N6CCOCC6)C[C@]5(C)[C@H]4CC[C@]3(C)[C@H]2OC(C)=O)CCCC1` [ROCURONIUM], for which the “effect on cholinesterase (ChE)” value in data set [2] is “no effect”.
